Results taken from patent US20130053243A1, “PLANTS HAVING INCREASED TOLERANCE TO HERBICIDES” (BASF SE, priority 2010, published 2013).
Where two headings read alike, the source gives them in different places.

Assays:
[1] = biological target: T1, Arabidopsis HPPD variant Q293H (Arabidopsis thaliana, UniProt P93836, Q293H); assay: HPPD activity assay, mutant enzyme; format: biochemical
T1 construct: His6 (N); made in house; host or cells: E. coli BL21 (DE3)
Procedure: (§1) HPPD produces homogentisic acid and CO2 from 4-hydroxyphenylpyruvate (4-HPP) and O2. The activity assay for HPPD is based on the analysis of homogentisic acid by reversed phase HPLC.
(§2) The assay mixture can contain 150 mM potassium phosphate buffer pH 7.0, 50 mM L-ascorbic acid, 1 μM FeSO4 and 7 μg of purified enzyme in a total volume of 1 ml.
(§3) Inhibitors are dissolved in DMSO (dimethylsulfoxide) to a concentration of 20 mM or 0.5 mM, respectively. From this stock solution serial five-fold dilutions are prepared in DMSO, which are used in the assay. The respective inhibitor solution accounts for 1% of the assay volume. Thus, final inhibitor concentrations range from 200 μM to 2.5 nM or from 5 μM to 63 pM, respectively.
(§4) After a preincubation of 30 min the reaction is started by adding 4-HPP to a final concentration of 0.1 mM. The reaction is allowed to proceed for 120 min at room temperature. The reaction is stopped by addition of 100 μl of 4.5 M phosphoric acid.
(§5) The sample is extracted on an Oasis® HLB cartridge 3 cc/60 mg (Waters) that was preequilibrated with 63 mM phosphoric acid. L-ascorbic acid is washed out with 3 ml of 63 mM phosphoric acid. Homogentisate is eluted with 1 ml of a 1:1 mixture of 63 mM phosphoric acid and methanol (w/w).
(§6) 10 μl of the eluate is analyzed by reversed phase HPLC on a Symmetry® C18 column (particle size 3.5 μm, dimensions 4.6×100 mm; Waters) using 5 mM H3PO4/15% ethanol (w/w) as an eluent.
(§7) Homogentisic acid is detected electrochemically and quantified by measuring peak areas (Empower software; Waters).
(§8) Activities are normalized by setting the uninhibited enzyme activity to 100%. IC50 values are calculated using non-linear regression.
(§9) The assay mixture can contain 150 mM potassium phosphate buffer pH 7.0, 50 mM L-ascorbic acid, 100 μM Catalase (Sigma-Aldrich), 1 μM FeSO4 and 0.2 units of purified HPPD enzyme in a total volume of 505 μl. 1 unit is defined as the amount of enzyme that is required to produce 1 nmol of HGA per minute at 20° C.
(§10) After a preincubation of 30 min the reaction is started by adding 4-HPP to a final concentration of 0.05 mM. The reaction is allowed to proceed for 45 min at room temperature. The reaction is stopped by the addition of 50 μl of 4.5 M phosphoric acid. The sample is filtered using a […] pore size PVDF filtration device.
(§11) 5 μl of the cleared sample is analyzed on an Atlantis T3 column (particle size 3 μm, dimensions 3×50 mm; Waters) by isocratic elution using 90% 10 mM NaH2PO4 pH 2.2, 10% methanol (v/v).
(§12) HGA is detected electrochemically at 750 mV (mode: DC; polarity: positive) and quantified by integrating peak areas (Empower software; Waters).
(§13) Inhibitors are dissolved in DMSO (dimethylsulfoxide) to a concentration of 0.5 mM. From this stock solution serial five-fold dilutions are prepared in DMSO, which are used in the assay. The respective inhibitor solution accounts for 1% of the assay volume. Thus, final inhibitor concentrations range from 5 μM to 320 pM, respectively. Activities are normalized by setting the uninhibited enzyme activity to 100%. IC50 values are calculated using non-linear regression.
(§14) Purified, mutant HPPD enzymes are obtained by the methods described above. Dose response and kinetic measurements are carried out using the described HPPD activity assay. Apparent michaelis constants (Km) and maximal reaction velocities (Vmax) are calculated by non-linear regression with the software GraphPad Prism 5 (GraphPad Software, La Jolla, USA) using a substrate inhibition model. Apparent kcat values are calculated from Vmax assuming 100% purity of the enzyme preparation. Weighted means (by standard error) of Km and IC50 values are calculated from at least three independent experiments. The Cheng-Prusoff equation for competitive inhibition (Cheng, Y. C.; Prusoff, W. H. Biochem Pharmacol 1973, 22, 3099-3108) is used to calculate dissociation constants (Ki). Examples of the data obtained are depicted in Table 13.

[2] = biological target: T2, Arabidopsis HPPD variant Q293N (Arabidopsis thaliana, UniProt P93836, Q293N); assay: HPPD activity assay, mutant enzyme; format: biochemical
T2 construct: His6 (N); made in house; host or cells: E. coli BL21 (DE3)
Procedure: as §1, §2, §3, §4, §5, §6, §7, §8, §9, §10, §11, §12, §13, §14

[3] = biological target: Chlamydomonas HPPD1 (Chlamydomonas reinhardtii, UniProt A0A2K3DET7); assay: HPPD activity assay, wildtype enzyme; format: biochemical; conditions: calculated from IC50 with Cheng-Prusoff equation, read-out: dissociation constant Ki
Procedure: as §1, §2
Inhibitors are dissolved in DMSO (dimethylsulfoxide) to a concentration of 20 mM or 0.5 mM, respectively. From this stock solution serial five-fold dilutions are prepared in DMSO, which are used in the assay. The respective inhibitor solution accounts for 1% of the assay volume.
as §4, §8
The assay mixture can contain 150 mM potassium phosphate buffer pH 7.0, 50 mM L-ascorbic acid, 100 μM Catalase (Sigma-Aldrich), 1 μM FeSO4 and 0.2 units of purified HPPD enzyme in a total volume of 505 μl. […]
as §12
Inhibitors are dissolved in DMSO (dimethylsulfoxide) to a concentration of 0.5 mM. […] IC50 values are calculated using non-linear regression.
Using methods which are described in the above examples or well known in the art, purified, recombinant wildtype HPPD enzymes are characterized with respect to their kinetic properties and sensitivity towards HPPD inhibiting herbicides. Apparent michaelis constants (Km) and maximal reaction velocities (Vmax) are calculated by non-linear regression with the software GraphPad Prism 5 (GraphPad Software, La Jolla, USA) using a substrate inhibition model. […] Weighted means (by standard error) of Km and IC50 values are calculated from at least three independent experiments.

[4] = biological target: T3, Arabidopsis HPPD (Arabidopsis thaliana, UniProt P93836); assay: HPPD activity assay (homogentisic acid by HPLC), wildtype enzyme; format: biochemical; conditions: Table 11, calculated from IC50 with Cheng-Prusoff equation, read-out: dissociation constant Ki
T3 construct: His6 (N); made in house; host or cells: E. coli BL21 (DE3)
T3 sequence (P93836 1-445): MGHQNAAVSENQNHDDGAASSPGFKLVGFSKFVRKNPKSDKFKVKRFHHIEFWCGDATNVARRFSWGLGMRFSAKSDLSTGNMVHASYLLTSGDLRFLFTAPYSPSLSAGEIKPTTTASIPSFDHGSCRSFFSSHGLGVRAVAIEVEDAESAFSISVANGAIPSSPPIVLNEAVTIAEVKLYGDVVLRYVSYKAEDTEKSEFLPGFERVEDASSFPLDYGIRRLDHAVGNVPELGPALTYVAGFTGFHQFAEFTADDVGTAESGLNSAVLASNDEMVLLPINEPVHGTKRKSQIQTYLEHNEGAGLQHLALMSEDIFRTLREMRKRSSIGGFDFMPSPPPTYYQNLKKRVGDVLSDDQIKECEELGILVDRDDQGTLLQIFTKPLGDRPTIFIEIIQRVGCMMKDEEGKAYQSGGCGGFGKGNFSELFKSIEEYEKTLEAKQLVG
Procedure: as §1, §2, §3, §4
The sample is extracted on an Oasis® HLB cartridge 3 cc/60 mg (Waters) that was preequilibrated with 63 mM phosphoric acid. L-ascorbic acid is washed out with 3 ml of 63 mM phosphoric acid. […]
as §6, §7
Activities are normalized by setting the uninhibited enzyme activity to 100%. IC50 values are calculated using non-linear regression. […]
as §11, §12
Inhibitors are dissolved in DMSO (dimethylsulfoxide) to a concentration of 0.5 mM. […] IC50 values are calculated using non-linear regression. […]

[5] = test system: Chlamydomonas strain CMr06; assay: Growth inhibition of Chlamydomonas strains (tolerance); format: cell-based, Chlamydomonas reinhardtii
Procedure: (§15) Algae cells of Chlamydomonas reinhardtii strains CC-503 and CC-1691 (Duke University, Durham, USA) are propagated in TAP medium (Gorman and Levine (1965) PNAS 54: 1665-1669) by constant shaking at 100 rpm, 22° C. and 30 μmol Phot*m^−2*[…] light illumination. Scenedesmus obliquus (University of Gottingen, Germany) are propagated in algae medium as described (Boger and Sandmann, (1993) In: Target assays for modern herbicides and related phytotoxic compounds, Lewis Publishers) under same culturing conditions as mentioned for Chlamydomonas. Compound screening is performed at 450 μmol Phot*m^−2*[…] illumination.
(§16) Sensitive strains of Chlamydomonas reinhardtii or Scenedesmus obliquus (Tables 14, 15) are mutated with 0.14 […] (EMS) for 1 h as described by Loppes (1969, Mol Gen Genet. 104: 172-177) Tolerant strains are identified by screening of mutagenized cells on solid nutrient solution plates containing “coumarone-derivative herbicides” or other HPPD inhibiting herbicides at wildype-lethal concentrations. Examples of the data obtained are depicted in Table 16 and FIG. 2.

[6] = test system: Chlamydomonas strain CMr04; assay: as above; format: cell-based, Chlamydomonas reinhardtii
Procedure: as §15, §16

[7] = test system: Chlamydomonas strain CMr10; assay: as above; format: cell-based, Chlamydomonas reinhardtii; conditions: read-out: IC50 of growth inhibition
Procedure: as §15, §16

[8] = test system: Chlamydomonas strain CC1961 wild-type; assay: as above; format: cell-based, Chlamydomonas reinhardtii; conditions: read-out: IC50 of growth inhibition
Procedure: as §15, §16

[9] = test system: Chlamydomonas strain CMr15; assay: as above; format: cell-based, Chlamydomonas reinhardtii
Procedure: as §15, §16

[10] = test system: Chlamydomonas strain CMr13; assay: as above; format: cell-based, Chlamydomonas reinhardtii; conditions: read-out: IC50 of growth inhibition
Procedure: as §15, §16

[11] = test system: Chlamydomonas strain CMr05; assay: as above; format: cell-based, Chlamydomonas reinhardtii
Procedure: as §15, §16

[12] = test system: C. reinhardtii (CC-503); assay: C. reinhardtii growth inhibition by HPPD inhibiting herbicides; format: cell-based, Chlamydomonas reinhardtii
Excerpt: (§17) Bleaching herbicides with a mode of action in plastoquinone or tocopherol biosynthesis can inhibit algae growth (Tables 14 and 15). These effects can be partly reversed by intermediates of homogentisic acid biosynthesis (Table 14). To generate mutations conferring “coumarone-derivative herbicide” resistance in HPPD or HST genes, chemical or UV mutagenesis can be used. Especially unicellular organisms like Chlamydomonas reinhardtii or Scenedesmus obliquus are useful for identifying dominant mutations in herbicide resistance.
as §15

[13] = test system: Scenedesmus obliquus; assay: S. obliquus growth inhibition; format: cell-based
Excerpt: as §17, §15

[14] = read-out: IC50 of growth inhibition

Chlamydomonas HPPD1, sequence (A0A2K3DET7 entry or part of it): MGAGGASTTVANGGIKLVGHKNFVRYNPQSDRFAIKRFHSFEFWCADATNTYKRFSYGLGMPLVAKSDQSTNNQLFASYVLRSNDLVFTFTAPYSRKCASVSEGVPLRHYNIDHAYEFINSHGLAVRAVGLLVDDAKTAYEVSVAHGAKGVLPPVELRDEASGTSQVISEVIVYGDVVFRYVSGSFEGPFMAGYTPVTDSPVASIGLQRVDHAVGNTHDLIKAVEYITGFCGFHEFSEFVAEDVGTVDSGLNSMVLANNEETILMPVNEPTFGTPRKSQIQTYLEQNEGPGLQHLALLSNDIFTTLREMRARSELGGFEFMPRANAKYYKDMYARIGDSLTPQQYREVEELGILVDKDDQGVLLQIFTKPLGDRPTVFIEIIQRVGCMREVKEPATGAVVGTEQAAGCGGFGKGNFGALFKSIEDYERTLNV
T2 sequence (P93836 whole entry Q293N): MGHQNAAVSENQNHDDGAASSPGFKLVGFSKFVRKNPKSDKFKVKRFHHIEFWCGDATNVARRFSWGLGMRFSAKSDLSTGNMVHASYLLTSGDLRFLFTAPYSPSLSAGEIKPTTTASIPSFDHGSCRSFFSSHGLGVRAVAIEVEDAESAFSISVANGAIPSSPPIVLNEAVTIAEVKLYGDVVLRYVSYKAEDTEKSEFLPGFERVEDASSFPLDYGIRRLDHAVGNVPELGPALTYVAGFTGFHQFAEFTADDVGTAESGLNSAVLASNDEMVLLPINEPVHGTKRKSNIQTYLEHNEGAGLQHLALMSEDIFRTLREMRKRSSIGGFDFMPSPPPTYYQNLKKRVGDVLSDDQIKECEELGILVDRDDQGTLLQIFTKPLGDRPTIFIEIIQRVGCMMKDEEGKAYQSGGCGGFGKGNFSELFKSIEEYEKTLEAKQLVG
T1 sequence (P93836 whole entry Q293H): as the sequence (P93836 whole entry Q293N) above, with N293H counted along it

Q: How did the Ki [1] turn out when `O=S1(=O)C(c2ccc(Cl)cc2Cl)=C(O)c2ncccc2N1CC(F)F` [Inhibitor 2, 3-(2,4-dichlorophenyl)-1-(2,2-difluoroethyl)-2,2-dioxo-pyrido[3,2-c]thiazin-4-ol] was run?
A: 0.019 µM

Q: And the Ki [2]?
A: 0.044 µM

Q: What about the Ki [3] of the same compound?
A: 0.139 µM

Q: And the Ki [4]?
A: 0.013 µM

Q: `CS(=O)(=O)c1ccc(C(=O)C2C(=O)CCCC2=O)c([N+](=O)[O-])c1` [Mesotrione, reference compound] was tested. Which IC50 [5, 14] did it give?
A: > 600 µM

Q: What about the IC50 [6, 14] of the same compound?
A: > 600 µM

Q: What about the IC50 [7] of the same compound?
A: 450 µM

Q: And the IC50 [8]?
A: 30 µM

Q: And the IC50 [9, 14]?
A: 540 µM

Q: And the IC50 [10]?
A: > 600 µM

Q: What about the IC50 [11, 14] of the same compound?
A: > 600 µM

Q: For `C#Cc1ccc(-c2c(O)c3ncccc3oc2=O)c(C(F)(F)F)c1` [drawing 20], which “Growth inihibition [%] C. reinhardtii (CC-503)” value ([12]; c 1 * 10^−4 M) is on record?
A: 61%

Q: And the “Growth inihibition [%] C. reinhardtii (CC-503) + Homogentisic acid” value ([12]; c 1 * 10^−4 M)?
A: 43%

Q: What about the “Growth inihibition [%] C. reinhardtii (CC-503)” value ([12]; c 5 * 10^−4 M) of the same compound?
A: 90%

Q: What about the “Growth inihibition [%] C. reinhardtii (CC-503) + Homogentisic acid” value ([12]; c 5 * 10^−4 M) of the same compound?
A: 67%

Q: Which results are given for `C#Cc1ccc(-c2c(O)c3ncccc3oc2=O)c(C(F)(F)F)c1` [drawing 21, 3-[4-ethynyl-2-(trifluoromethyl)phenyl]-4-hydroxy-pyrano[3,2-b]pyridin-2-one]?
A: Growth inihibition [%] Scenedesmus obliquus ([13]; c 1 * 10^−4 M): 100%; Growth inihibition [%] Scenedesmus obliquus ([13]; c 1 * 10^−5 M): 77%

Q: How did the IC50 ([5]; strain CMr06, read-out: IC50 of growth inhibition) turn out when `Cc1c(-c2c(O)c3ncccc3oc2=O)ccc(S(C)(=O)=O)c1C1=NOC(C)C1` (stereo not drawn) [“coumarone-derivative herbicides” 1, 4-hydroxy-3-[2-methyl-3-(5-methyl-4,5-dihydroisoxazol-3-yl)-4-methylsulfonyl-phenyl]pyrano[3,2-b]pyridin-2-one] was run?
A: > 1000 µM

Q: And the IC50 ([6]; strain CMr04, read-out: IC50 of growth inhibition)?
A: > 1000 µM

Q: What about the IC50 [7] of the same compound?
A: > 1000 µM

Q: What about the IC50 ([8]; strain CC1961 wild-type) of the same compound?
A: 760 µM

Q: What about the IC50 ([9]; strain CMr15, read-out: IC50 of growth inhibition) of the same compound?
A: > 1000 µM

Q: And the IC50 [10]?
A: 950 µM

Q: And the IC50 ([11]; strain CMr05, read-out: IC50 of growth inhibition)?
A: > 1000 µM
